Laboratory results: PubChem BioAssay (NCI)
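Interpolation was linear, between the two tested concentrations surrounding the appropriate level; five concentrations were tested over 48 hours in 96-well plates. GI50: concentration for 50% inhibition of growth. At the TGI there is no net growth.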

Legend:
Test in all cases: NCI anticancer screen, dose series, 48 h
PC-3 prostate = system: PC-3 prostate
NCI-H23 lung = system: NCI-H23 lung
RPMI-8226 leukemia = system: RPMI-8226 leukemia
IGROV1 ovarian = system: IGROV1 ovarian
MCF7 breast = system: MCF7 breast
OVCAR-3 ovarian = system: OVCAR-3 ovarian
HCC-2998 colon = system: HCC-2998 colon
SW-620 colon = system: SW-620 colon
HT29 colon = system: HT29 colon
CCRF-CEM leukemia = system: CCRF-CEM leukemia

| Structure (SMILES) | GI50 (PC-3 prostate) [µM] | TGI (PC-3 prostate) [µM] | GI50 (NCI-H23 lung) [µM] | TGI (NCI-H23 lung) [µM] | GI50 (RPMI-8226 leukemia) [µM] | TGI (RPMI-8226 leukemia) [µM] | GI50 (IGROV1 ovarian) [µM] | TGI (IGROV1 ovarian) [µM] | GI50 (MCF7 breast) [µM] | TGI (MCF7 breast) [µM] | GI50 (OVCAR-3 ovarian) [µM] | TGI (OVCAR-3 ovarian) [µM] | GI50 (HCC-2998 colon) [µM] | TGI (HCC-2998 colon) [µM] | GI50 (SW-620 colon) [µM] | TGI (SW-620 colon) [µM] | GI50 (HT29 colon) [µM] | TGI (HT29 colon) [µM] | GI50 (CCRF-CEM leukemia) [µM] | TGI (CCRF-CEM leukemia) [µM] |
| --- | --- | --- | --- | --- | --- | --- | --- | --- | --- | --- | --- | --- | --- | --- | --- | --- | --- | --- | --- | --- |
| Cc1ccc(C(=NN=C(N)N)c2ccc(C)cc2)cc1 | 0.457 | 10.5 | 0.98 | 8.66 | 1.07 | 4.87 | 0.644 | 7.64 | 0.396 | 8.53 | 0.24 | 0.568 | 0.683 | 1.93 | 0.379 | 1.66 | 0.316 | 1.17 | 0.559 | 12.2 |
| O=C(c1cccc(O)c1O)c1cn(Cc2ccc(F)cc2)c2cccc(O)c12 | 6.92 | 26.7 | 4.12 | 19.8 | 0.564 | 6.99 | 0.833 | 7.85 | 2.14 | 13.1 | 3.27 | 18.1 | 1.55 | 11.4 | 5.26 | 19.9 | 7.43 | 23.4 | 0.861 | 6.44 |
| CC12CCCC(O)C1CCC1=CC3(CCC12)SCCS3 (stereo not drawn) | – | > 10 | – | > 10 | – | > 10 | – | > 10 | – | > 10 | – | > 10 | – | > 10 | – | > 10 | – | > 10 | – | > 10 |
| CCS(=O)(=O)c1ccc(OC)c(Nc2ncc(-c3cccc(OC)c3)o2)c1 | 8.61 | > 25 | 8.3 | > 25 | > 16.5 | > 25 | 6.8 | > 20.7 | > 18.3 | > 25 | 9.92 | > 25 | 23 | > 25 | 9.09 | > 25 | 10.8 | > 25 | 10.7 | > 25 |
| COc1ccc(C(C)c2cc3c(cc2OC)OCO3)cc1 (stereo not drawn) | – | > 100 | – | > 21.5 | – | > 48.6 | – | 7.47 | – | 40.6 | – | 0.598 | – | 3.62 | – | > 100 | – | 0.43 | – | > 66.2 |
| COc1ccc(C(=O)COc2cccc(/C=C3\COc4ccc5ccccc5c4C3=O)c2)cc1 | 3.5 | > 100 | 5.17 | > 100 | 1.15 | 3.94 | 17.4 | > 100 | 2.48 | > 100 | 3.12 | 11.5 | 23.5 | > 100 | 3.33 | 13.7 | 6.08 | > 100 | 1.92 | 6.26 |
| CCN(CC)c1sc(N(CC)CC)c2c1SSSSS2 | 2.05 | 4.26 | 0.255 | 0.674 | 0.366 | 1.36 | 0.715 | 2.77 | 1.08 | – | 1.44 | 3.39 | 0.935 | 2.4 | 0.132 | 1.14 | 2.06 | 5.2 | 0.359 | 1.24 |
| CCN1C(=O)CNc2ncc(-c3ccc(-c4ncn[nH]4)nc3C)nc21 | 0.0706 | 1.97 | 0.238 | 8.27 | 0.0454 | 0.553 | 0.045 | 0.606 | 0.051 | 10.7 | 0.189 | 4.49 | 0.338 | 12.4 | 0.439 | 12.1 | 0.317 | 11.6 | 0.215 | > 34.8 |
| COc1ccc(OC)c(/C=C/C(=O)N/N=C/c2ccc(Cl)cc2)c1 | 0.105 | > 100 | 0.105 | – | 0.286 | > 39.6 | 0.123 | > 79.3 | 0.0529 | > 57 | 0.0285 | 0.0875 | 0.0831 | 0.653 | 0.0577 | > 100 | 0.0388 | 4.65 | 0.141 | > 100 |
| CCC#CC[C@H]1C/C=C2/C(=O)C=C[C@@H]2C/C=C\CCCC(=O)O1 | 1.35 | 6.05 | 0.873 | 2.03 | 0.267 | 1.86 | 1.47 | 4.33 | 0.203 | 5.82 | 0.568 | 3.31 | 0.991 | 1.8 | 0.642 | 4.15 | 0.894 | 2.39 | 0.791 | 5 |
